Results from US20080009418A1, “Selective Inhibitors” (Alchemia LTD., priority 2004, published 2008).

Key:
Details in all cases: compound at 10 μM
Human δ-opioid (DOP) = target: T1, Human δ-opioid (DOP) (Homo sapiens, UniProt P41143); test: Radioligand binding, human δ-opioid (DOP) membranes, FlashPlate, [3H]-Bremazocine
T1 construct: purchased Perkin Elmer Biosignal
How it was run: (§1)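 Cloned human receptor membranes were coated onto FlashPlate wells and incubated with radioligand and compound (added from a 0.5 mM DMSO daughter plate) for 1 hour at room temperature in the dark. Scintillation counting gave percent inhibition, with DMSO defining total and reference ligand defining non-specific binding.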

Human μ-opioid (MOP) = target: T2, Human μ-opioid (MOP) (Homo sapiens, UniProt P35372); test: Radioligand binding, human μ-opioid (MOP) membranes, FlashPlate, [3H]-Naloxone
T2 construct: purchased Perkin Elmer Biosignal
T2 sequence (P35372 whole entry): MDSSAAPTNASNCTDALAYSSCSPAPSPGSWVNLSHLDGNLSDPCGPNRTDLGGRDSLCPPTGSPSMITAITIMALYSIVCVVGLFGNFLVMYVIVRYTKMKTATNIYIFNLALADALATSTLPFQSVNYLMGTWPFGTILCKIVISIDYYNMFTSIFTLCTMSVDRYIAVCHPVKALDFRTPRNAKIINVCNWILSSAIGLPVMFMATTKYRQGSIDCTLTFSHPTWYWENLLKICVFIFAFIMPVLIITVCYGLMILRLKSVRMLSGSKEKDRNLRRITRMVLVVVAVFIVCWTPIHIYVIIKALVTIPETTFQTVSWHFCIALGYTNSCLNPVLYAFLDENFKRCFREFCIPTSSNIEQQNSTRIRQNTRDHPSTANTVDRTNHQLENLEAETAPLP
How it was run: as §1

Human neurokinin (NK1) = target: T3, Human neurokinin (NK1) (Homo sapiens, UniProt P25103); test: Radioligand binding, human neurokinin NK1 membranes, filtration, [125I]-Substance P
T3 construct: purchased Perkin Elmer Biosignal
T3 sequence (P25103 whole entry): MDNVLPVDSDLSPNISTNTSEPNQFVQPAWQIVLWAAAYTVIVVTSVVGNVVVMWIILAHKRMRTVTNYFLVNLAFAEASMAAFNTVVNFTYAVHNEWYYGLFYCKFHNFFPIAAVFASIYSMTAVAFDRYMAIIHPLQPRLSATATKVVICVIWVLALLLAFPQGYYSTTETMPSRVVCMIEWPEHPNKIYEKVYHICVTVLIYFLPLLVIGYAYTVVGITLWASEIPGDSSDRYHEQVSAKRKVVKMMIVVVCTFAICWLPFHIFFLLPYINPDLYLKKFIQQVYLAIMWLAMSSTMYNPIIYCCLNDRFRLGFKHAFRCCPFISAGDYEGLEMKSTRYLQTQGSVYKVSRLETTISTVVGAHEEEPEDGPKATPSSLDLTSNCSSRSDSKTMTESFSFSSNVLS
How it was run: (§2)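 Percent inhibition of radioligand binding measured on recombinant human membranes: NK1 with [125I]-Substance P, KOP with [3H]-Diprenorphine. Incubation 1 h at room temperature, then harvest onto 0.3% PEI-soaked filters, cold Tris-HCl pH 7.4 washes and scintillation counting; non-specific binding from reference ligand wells.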

[1] = target: T4, Human neuropeptide Y (NPY-Y1) (Homo sapiens, UniProt P25929); test: Radioligand binding, human neuropeptide Y NPY-Y1 membranes, FlashPlate, [125I]-PYY
T4 construct: purchased Perkin Elmer Biosignal
T4 sequence (P25929 1-384): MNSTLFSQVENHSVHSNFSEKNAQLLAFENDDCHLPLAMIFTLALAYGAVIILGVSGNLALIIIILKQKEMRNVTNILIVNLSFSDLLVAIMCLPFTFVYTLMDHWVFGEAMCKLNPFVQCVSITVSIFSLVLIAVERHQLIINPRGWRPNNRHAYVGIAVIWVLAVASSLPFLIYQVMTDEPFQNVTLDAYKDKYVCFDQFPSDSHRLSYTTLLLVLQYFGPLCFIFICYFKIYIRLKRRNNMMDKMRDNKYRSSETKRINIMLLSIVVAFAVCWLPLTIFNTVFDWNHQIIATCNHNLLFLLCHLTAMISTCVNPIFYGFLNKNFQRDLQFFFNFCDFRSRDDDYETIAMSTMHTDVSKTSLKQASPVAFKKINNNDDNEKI
How it was run: as §1

Human opioid (ORL1) = target: T5, Human opioid (ORL1) (Homo sapiens, UniProt P41146); test: Radioligand binding, human opioid ORL1 membranes, FlashPlate, [125I]-Nociceptin
T5 construct: purchased Perkin Elmer Biosignal
T5 sequence (P41146 whole entry): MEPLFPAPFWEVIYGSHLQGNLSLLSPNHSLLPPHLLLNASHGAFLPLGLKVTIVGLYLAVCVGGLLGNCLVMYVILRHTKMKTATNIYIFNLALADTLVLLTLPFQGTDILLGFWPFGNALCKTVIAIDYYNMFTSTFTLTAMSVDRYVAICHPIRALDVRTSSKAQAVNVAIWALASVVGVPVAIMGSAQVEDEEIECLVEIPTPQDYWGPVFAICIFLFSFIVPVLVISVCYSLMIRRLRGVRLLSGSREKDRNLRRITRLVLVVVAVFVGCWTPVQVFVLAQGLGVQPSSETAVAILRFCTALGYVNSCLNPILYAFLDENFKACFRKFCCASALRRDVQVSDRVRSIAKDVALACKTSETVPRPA
How it was run: as §1

[2] = target: T6, Human melanin-concentrating hormone (MCH1) (Homo sapiens, UniProt Q99705); test: Radioligand binding, human melanin-concentrating hormone MCH1 membranes, FlashPlate, [125I]-S36057
T6 construct: purchased Perkin Elmer Biosignal
T6 sequence (Q99705 whole entry): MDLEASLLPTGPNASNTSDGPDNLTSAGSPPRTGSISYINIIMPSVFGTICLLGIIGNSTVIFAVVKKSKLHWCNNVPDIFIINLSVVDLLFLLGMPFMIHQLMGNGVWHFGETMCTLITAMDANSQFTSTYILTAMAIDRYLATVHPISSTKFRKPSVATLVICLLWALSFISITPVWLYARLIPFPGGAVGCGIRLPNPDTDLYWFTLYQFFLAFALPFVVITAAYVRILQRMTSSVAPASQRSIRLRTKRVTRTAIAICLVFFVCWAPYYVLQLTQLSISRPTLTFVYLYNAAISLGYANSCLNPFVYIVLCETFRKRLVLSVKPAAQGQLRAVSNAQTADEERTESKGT
How it was run: as §1

Mouse urotensin (mUR2) = target: T7, Mouse urotensin (mUR2) (Mus musculus, UniProt Q8VIH9); test: Radioligand binding, mouse urotensin mUR2 membranes, FlashPlate, [125I]-Urotensin II
T7 construct: purchased Perkin Elmer Biosignal
T7 sequence (Q8VIH9 1-385): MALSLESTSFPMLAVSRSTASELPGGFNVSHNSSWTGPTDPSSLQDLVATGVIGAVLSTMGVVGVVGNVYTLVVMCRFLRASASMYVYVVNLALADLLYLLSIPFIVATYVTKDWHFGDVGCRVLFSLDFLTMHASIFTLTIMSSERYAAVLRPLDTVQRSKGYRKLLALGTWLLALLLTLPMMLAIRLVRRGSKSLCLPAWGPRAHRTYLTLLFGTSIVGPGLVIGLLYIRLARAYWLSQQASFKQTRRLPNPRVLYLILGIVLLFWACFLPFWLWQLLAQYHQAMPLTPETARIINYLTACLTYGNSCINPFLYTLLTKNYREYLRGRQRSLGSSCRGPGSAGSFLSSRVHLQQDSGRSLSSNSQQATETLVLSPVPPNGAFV
How it was run: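 Cloned mouse urotensin (mUR2) receptor membranes from Perkin Elmer Biosignal were immobilized in FlashPlate microplates using a proprietary coating. Each well got 19.5 μl buffer, then 0.5 μl of DMSO, reference ligand, or compound. Adding 5 μl of [125I]-Urotensin II, diluted to 5× final concentration in binding buffer, started binding. Plates were sealed with TopSeal-A and incubated 1 hour at room temperature in the dark. Wells were counted for 30 seconds each on a TopCount after a 60-second delay, and percentage inhibition was calculated.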

Human Melanocortin (MC4) = target: T8, Human Melanocortin (MC4) (Homo sapiens, UniProt P32245); test: Radioligand binding, human melanocortin MC4 membranes, FlashPlate, [125I]-NDP-αMSH
T8 construct: purchased Perkin Elmer Biosignal
T8 sequence (P32245 whole entry): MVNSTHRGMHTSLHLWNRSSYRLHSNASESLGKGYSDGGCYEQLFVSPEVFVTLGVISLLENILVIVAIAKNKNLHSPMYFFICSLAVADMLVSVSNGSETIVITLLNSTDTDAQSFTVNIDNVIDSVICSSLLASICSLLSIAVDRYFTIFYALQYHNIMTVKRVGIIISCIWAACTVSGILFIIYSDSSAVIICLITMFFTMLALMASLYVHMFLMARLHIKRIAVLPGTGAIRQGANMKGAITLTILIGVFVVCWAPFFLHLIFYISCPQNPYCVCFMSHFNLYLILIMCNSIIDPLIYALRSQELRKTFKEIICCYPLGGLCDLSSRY
How it was run: as §1

Human melanocortin (MC5) = target: T9, Human melanocortin (MC5) (Homo sapiens, UniProt P33032); test: Radioligand binding, human melanocortin MC5 membranes, FlashPlate, [125I]-NDP-αMSH
T9 construct: purchased Perkin Elmer Biosignal
T9 sequence (P33032 whole entry): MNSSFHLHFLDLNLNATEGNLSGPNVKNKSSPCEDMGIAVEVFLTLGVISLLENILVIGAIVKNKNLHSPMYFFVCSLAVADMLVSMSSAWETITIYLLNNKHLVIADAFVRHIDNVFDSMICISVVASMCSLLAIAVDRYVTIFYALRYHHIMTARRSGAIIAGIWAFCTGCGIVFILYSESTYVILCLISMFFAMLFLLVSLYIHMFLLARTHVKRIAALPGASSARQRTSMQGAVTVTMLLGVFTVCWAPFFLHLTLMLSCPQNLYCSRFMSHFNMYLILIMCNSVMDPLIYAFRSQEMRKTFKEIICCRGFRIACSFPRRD
How it was run: as §1

Human κ-Opioid (KOP) = target: T10, Human κ-Opioid (KOP) (Homo sapiens, UniProt P41145); test: Radioligand binding, human κ-opioid (KOP) membranes, filtration, [3H]-Diprenorphine
T10 construct: purchased Perkin Elmer Biosignal
T10 sequence (P41145 whole entry): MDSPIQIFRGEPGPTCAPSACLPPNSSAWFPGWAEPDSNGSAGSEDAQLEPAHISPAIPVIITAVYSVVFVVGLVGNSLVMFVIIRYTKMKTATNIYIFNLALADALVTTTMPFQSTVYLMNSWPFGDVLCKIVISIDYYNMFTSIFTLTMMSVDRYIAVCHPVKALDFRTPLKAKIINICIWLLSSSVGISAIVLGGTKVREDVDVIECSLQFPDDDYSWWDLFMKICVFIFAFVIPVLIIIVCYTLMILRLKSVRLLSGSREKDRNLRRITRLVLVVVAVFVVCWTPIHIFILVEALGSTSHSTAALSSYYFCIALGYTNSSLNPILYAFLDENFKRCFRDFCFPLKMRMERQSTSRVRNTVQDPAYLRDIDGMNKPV
How it was run: as §2

Human Melanocortin (MC3) = target: T11, Human Melanocortin (MC3) (Homo sapiens, UniProt P41968); test: Radioligand binding, human melanocortin MC3 membranes, FlashPlate, [125I]-NDP-αMSH
T11 construct: purchased Perkin Elmer Biosignal
T11 sequence (P41968 whole entry): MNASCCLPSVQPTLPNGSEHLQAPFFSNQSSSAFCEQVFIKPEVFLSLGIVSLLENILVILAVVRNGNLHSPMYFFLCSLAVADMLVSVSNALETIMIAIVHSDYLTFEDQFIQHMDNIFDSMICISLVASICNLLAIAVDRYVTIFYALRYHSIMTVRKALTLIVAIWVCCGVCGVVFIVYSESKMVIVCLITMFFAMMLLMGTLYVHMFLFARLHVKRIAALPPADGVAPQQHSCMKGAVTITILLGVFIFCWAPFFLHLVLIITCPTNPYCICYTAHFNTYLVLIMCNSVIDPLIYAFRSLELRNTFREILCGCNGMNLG
How it was run: as §1

[3] = [125I]-Urotensin II, FlashPlate

T1 sequence (P41143 whole entry): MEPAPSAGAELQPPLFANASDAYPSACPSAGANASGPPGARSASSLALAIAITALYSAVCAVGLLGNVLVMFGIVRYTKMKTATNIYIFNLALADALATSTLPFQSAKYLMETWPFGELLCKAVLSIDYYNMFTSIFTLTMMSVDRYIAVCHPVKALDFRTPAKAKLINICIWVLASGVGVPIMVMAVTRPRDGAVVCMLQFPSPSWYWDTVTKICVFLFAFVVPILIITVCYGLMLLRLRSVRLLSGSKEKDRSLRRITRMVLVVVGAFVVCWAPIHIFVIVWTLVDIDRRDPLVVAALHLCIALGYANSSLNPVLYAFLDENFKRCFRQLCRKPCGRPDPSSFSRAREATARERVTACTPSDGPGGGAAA

## NCCC(=O)NC1C(OCc2ccc3ccccc3c2)OC(COCc2ccccc2)C(O)C1OCc1ccccc1 (stereo not shown) [compound 451]
Human δ-opioid (DOP); [3H]-Bremazocine, human DOP membranes
  A1: inhibition of radioligand binding: − (“−” indicates less than 50% inhibition at 10 μM)
Human μ-opioid (MOP); [3H]-Naloxone, human MOP membranes
  A7: inhibition of radioligand binding: − (“−” indicates less than 50% inhibition at 10 μM)
Human neurokinin (NK1); [125I]-Substance P, human NK1 membranes
  A8: inhibition of radioligand binding: + (“+” indicates greater than 50% inhibition at 10 μM)
[1]; [125I]-PYY, human NPY-Y1 membranes
  A9: inhibition of radioligand binding: − (“−” indicates less than 50% inhibition at 10 μM)
Human opioid (ORL1); [125I]-Nociceptin, human ORL1 membranes
  A10: inhibition of radioligand binding: − (“−” indicates less than 50% inhibition at 10 μM)
[2]; [125I]-S36057, human MCH1 membranes
  A6: inhibition of radioligand binding: − (“−” indicates less than 50% inhibition at 10 μM)
Mouse urotensin (mUR2); [125I]-Urotensin II, mouse mUR2 membranes
  A11: inhibition of radioligand binding: − (“−” indicates less than 50% inhibition at 10 μM)
Human Melanocortin (MC4); [125I]-NDP-αMSH, human MC4 membranes
  A4: inhibition of radioligand binding: + (“+” indicates greater than 50% inhibition at 10 μM)
Human melanocortin (MC5); [125I]-NDP-αMSH, human MC5 membranes, 10 µM
  A5: inhibition of radioligand binding: − (“−” indicates less than 50% inhibition at 10 μM)
Human κ-Opioid (KOP); [3H]-Diprenorphine, human KOP membranes
  A2: inhibition of radioligand binding: − (“−” indicates less than 50% inhibition at 10 μM)
Human Melanocortin (MC3); [125I]-NDP-αMSH, human MC3 membranes
  A3: inhibition of radioligand binding: − (“−” indicates less than 50% inhibition at 10 μM)

## COC[C@H]1OC(OCc2ccc(-c3ccccc3)cc2)[C@H](NC(=O)CCNC(=N)N)[C@@H](OCc2ccc3ccccc3c2)[C@@H]1O (stereo partly shown) [compound 4]
Human δ-opioid (DOP); human δ-opioid (DOP) membranes
  A1 radioligand binding inhibition: − (“−” indicates less than 50% inhibition at 10 μM)
Human μ-opioid (MOP); human μ-opioid (MOP) membranes
  A7 radioligand binding inhibition: − (“−” indicates less than 50% inhibition at 10 μM)
Human neurokinin (NK1); human neurokinin NK1 membranes
  A8 radioligand binding inhibition: + (“+” indicates greater than 50% inhibition at 10 μM)
[1]; human NPY-Y1 membranes
  A9 radioligand binding inhibition: − (“−” indicates less than 50% inhibition at 10 μM)
Human opioid (ORL1); human ORL1 membranes
  A10 radioligand binding inhibition: − (“−” indicates less than 50% inhibition at 10 μM)
[2]; human MCH1 membranes
  A6 radioligand binding inhibition: + (“+” indicates greater than 50% inhibition at 10 μM)
Mouse urotensin (mUR2); mouse urotensin mUR2 membranes
  A11 radioligand binding inhibition: − (“−” indicates less than 50% inhibition at 10 μM)
Human Melanocortin (MC4); human melanocortin MC4 membranes
  A4 radioligand binding inhibition: − (“−” indicates less than 50% inhibition at 10 μM)
Human melanocortin (MC5); human melanocortin MC5 membranes
  A5 radioligand binding inhibition: + (“+” indicates greater than 50% inhibition at 10 μM)
Human κ-Opioid (KOP); human κ-opioid (KOP) membranes
  A2 radioligand binding inhibition: − (“−” indicates less than 50% inhibition at 10 μM)
Human Melanocortin (MC3); human melanocortin MC3 membranes
  A3 radioligand binding inhibition: − (“−” indicates less than 50% inhibition at 10 μM)

## COCC1OC(OCc2ccc3ccccc3c2)C(NC(=O)CN)C(OCc2ccc(-c3ccccc3)cc2)C1O (stereo not shown) [compound 241]
Human δ-opioid (DOP); [3H]-Bremazocine, FlashPlate
  A1: inhibition of radioligand binding: − (“−” indicates less than 50% inhibition at 10 μM)
Human μ-opioid (MOP); [3H]-Naloxone, FlashPlate
  A7: inhibition of radioligand binding: − (“−” indicates less than 50% inhibition at 10 μM)
Human neurokinin (NK1); [125I]-Substance P, filtration
  A8: inhibition of radioligand binding: + (“+” indicates greater than 50% inhibition at 10 μM)
[1]; [125I]-PYY, FlashPlate
  A9: inhibition of radioligand binding: − (“−” indicates less than 50% inhibition at 10 μM)
Human opioid (ORL1); [125I]-Nociceptin, FlashPlate
  A10: inhibition of radioligand binding: − (“−” indicates less than 50% inhibition at 10 μM)
[2]; [125I]-S36057, FlashPlate
  A6: inhibition of radioligand binding: − (“−” indicates less than 50% inhibition at 10 μM)
Mouse urotensin (mUR2); [3]
  A11: inhibition of radioligand binding: − (“−” indicates less than 50% inhibition at 10 μM)
Human Melanocortin (MC4); [125I]-NDP-αMSH, FlashPlate
  A4: inhibition of radioligand binding: + (“+” indicates greater than 50% inhibition at 10 μM)
Human melanocortin (MC5); [125I]-NDP-αMSH, FlashPlate
  A5: inhibition of radioligand binding: + (“+” indicates greater than 50% inhibition at 10 μM)
Human κ-Opioid (KOP); [3H]-Diprenorphine, filtration
  A2: inhibition of radioligand binding: − (“−” indicates less than 50% inhibition at 10 μM)
Human Melanocortin (MC3); [125I]-NDP-αMSH, FlashPlate
  A3: inhibition of radioligand binding: − (“−” indicates less than 50% inhibition at 10 μM)

## COCC1OC(OCc2ccc(Cl)cc2)C(NC(=O)CN)C(OCc2ccc3ccccc3c2)C1O (stereo not shown) [compound 208]
Human δ-opioid (DOP); [3H]-Bremazocine, FlashPlate
  A1: inhibition of radioligand binding: − (“−” indicates less than 50% inhibition at 10 μM)
Human μ-opioid (MOP); [3H]-Naloxone, FlashPlate
  A7: inhibition of radioligand binding: − (“−” indicates less than 50% inhibition at 10 μM)
Human neurokinin (NK1); [125I]-Substance P, filtration
  A8: inhibition of radioligand binding: + (“+” indicates greater than 50% inhibition at 10 μM)
[1]; [125I]-PYY, FlashPlate
  A9: inhibition of radioligand binding: − (“−” indicates less than 50% inhibition at 10 μM)
Human opioid (ORL1); [125I]-Nociceptin, FlashPlate
  A10: inhibition of radioligand binding: − (“−” indicates less than 50% inhibition at 10 μM)
[2]; [125I]-S36057, FlashPlate
  A6: inhibition of radioligand binding: − (“−” indicates less than 50% inhibition at 10 μM)
Mouse urotensin (mUR2); [3]
  A11: inhibition of radioligand binding: − (“−” indicates less than 50% inhibition at 10 μM)
Human Melanocortin (MC4); [125I]-NDP-αMSH, FlashPlate
  A4: inhibition of radioligand binding: − (“−” indicates less than 50% inhibition at 10 μM)
Human melanocortin (MC5); [125I]-NDP-αMSH, FlashPlate
  A5: inhibition of radioligand binding: + (“+” indicates greater than 50% inhibition at 10 μM)
Human κ-Opioid (KOP); [3H]-Diprenorphine, filtration
  A2: inhibition of radioligand binding: − (“−” indicates less than 50% inhibition at 10 μM)
Human Melanocortin (MC3); [125I]-NDP-αMSH, FlashPlate
  A3: inhibition of radioligand binding: − (“−” indicates less than 50% inhibition at 10 μM)

## CSC1OC(COCc2cccc(N)c2)C(O)C(OCc2ccc(Cl)cc2)C1NC(=O)c1ccccc1 (stereo not shown) [compound 327]
Human δ-opioid (DOP); [3H]-Bremazocine
  A1: inhibition of radioligand binding, human δ-opioid (DOP): − (“−” indicates less than 50% inhibition at 10 μM)
Human μ-opioid (MOP); [3H]-Naloxone
  A7: inhibition of radioligand binding, human μ-opioid (MOP): − (“−” indicates less than 50% inhibition at 10 μM)
Human neurokinin (NK1); [125I]-Substance P
  A8: inhibition of radioligand binding, human neurokinin (NK1): + (“+” indicates greater than 50% inhibition at 10 μM)
[1]; [125I]-PYY
  A9: inhibition of radioligand binding, human neuropeptide Y (NPY-Y1): − (“−” indicates less than 50% inhibition at 10 μM)
Human opioid (ORL1); [125I]-Nociceptin
  A10: inhibition of radioligand binding, human opioid (ORL1): − (“−” indicates less than 50% inhibition at 10 μM)
[2]; [125I]-S36057
  A6: inhibition of radioligand binding, human melanin-concentrating hormone (MCH1): − (“−” indicates less than 50% inhibition at 10 μM)
Mouse urotensin (mUR2); [125I]-Urotensin II
  A11: inhibition of radioligand binding, mouse urotensin (mUR2): − (“−” indicates less than 50% inhibition at 10 μM)
Human Melanocortin (MC4); [125I]-NDP-αMSH
  A4: inhibition of radioligand binding, human melanocortin (MC4): − (“−” indicates less than 50% inhibition at 10 μM)
Human melanocortin (MC5); [125I]-NDP-αMSH
  A5: inhibition of radioligand binding, human melanocortin (MC5): − (“−” indicates less than 50% inhibition at 10 μM)
Human κ-Opioid (KOP); [3H]-Diprenorphine
  A2: inhibition of radioligand binding, human κ-opioid (KOP): − (“−” indicates less than 50% inhibition at 10 μM)
Human Melanocortin (MC3); [125I]-NDP-αMSH
  A3: inhibition of radioligand binding, human melanocortin (MC3): − (“−” indicates less than 50% inhibition at 10 μM)
